Experiment: solvent given as SMILES

OC1CCCCC1
Settings	solvation free energy, 298 K [kcal/mol]
in Brc1ccccc1	-6.47
in C1CCOC1	-7.24
in CC#N	-6.37
in CC(C)=O	-6.94
in CC(C)CC(C)(C)C	-5.02
in CC(C)O	-7.35
in CCCCCCCCCCCCCCCC	-4.89
in CCCCCCCCCCO	-7.49
in CCCCCCCCO	-7.02
in CCCCOC(C)=O	-7.07
in CO	-7.69
in O	-5.44
in [2H]O[2H]	-5.7

CCCCCN(CCCCC)N=O
Settings	solvation free energy, 298 K [kcal/mol]
in CC(C)CC(C)(C)C	-9.29

CC(C)CCC(C)O (stereo not drawn)
Settings	solvation free energy, 298 K [kcal/mol]
in CCCCCCCC	-5.33
in CCCCCCCCCC	-5.22

CC1=CCC(C(C)C)=CC1
Settings	solvation free energy, 298 K [kcal/mol]
in O	-0.03

Brc1cc(Br)c(Br)cc1Br
Settings	solvation free energy, 298 K [kcal/mol]
in CCCCCCCCC=CCCCCCCCC(=O)OCC(COC(=O)CCCCCCCC=CCCCCCCCC)OC(=O)CCCCCCCC=CCCCCCCCC	-9.71
in O	-2.54

CC(C)=CCCC(C)C1C=CC(C)=CC1 (stereo not drawn)
Settings	solvation free energy, 298 K [kcal/mol]
in O	-0.11

Clc1c(Cl)c(Cl)c(Cl)c(Cl)c1Cl
Settings	solvation free energy, 298 K [kcal/mol]
in C1CCOC1	-11
in C1COCCO1	-10.8
in CC(C)CC(C)(C)C	-10
in CC(C)CCO	-9.59
in CCCC(C)O	-9.45
in CCCCC(CC)CO	-9.86
in CCCCCC	-10.2
in CCCCCCC	-10.2
in CCCCCCCC	-10.3
in CCCCCCCCC=CCCCCCCCC(=O)OCC(COC(=O)CCCCCCCC=CCCCCCCCC)OC(=O)CCCCCCCC=CCCCCCCCC	-9.52
in CCCCCCCCCC	-10.3
in CCCCCCCCO	-9.78
in CCCCCl	-10.6
in CCCCOC(C)=O	-10.4
in CCCCOCCCC	-10.4
in CCOC(C)=O	-10.2
in COC(C)=O	-10.2

CC(C)O
Settings	solvation free energy, 298 K [kcal/mol]
in C1CCOC1	-4.75
in C1COCCO1	-4.37
in CC#N	-4.42
in CC(=O)CC(C)=O	-4.41
in CC(=O)N(C)C	-5.29
in CC(C)(C)O	-5.02
in CC(C)CC(C)(C)C	-2.9
in CC(C)CCCC(C)CCCC(C)CCCCC(C)CCCC(C)CCCC(C)C	-2.29
in CC(Cl)(Cl)Cl	-4.07
in CCC(C)=O	-4.54
in CCCC(C)O	-4.85
in CCCCCC	-2.76
in CCCCCCC	-2.71
in CCCCCCCCCCCCCCCC	-2.37
in CCCCCCCCCCO	-4.49
in CCCCCCCCO	-4.61
in CCCCCO	-4.99
in CCCCN(C=O)CCCC	-4.71
in CCCCO	-5.02
in CCCO	-5.07
in CCCOCCC	-3.74
in CCN(CC)C(C)=O	-5.2
in CCNC(C)=O	-5.09
in CCNC=O	-5.03
in CCO	-5.27
in CCOC(=O)c1ccccc1C(=O)OCC	-3.75
in CCOC(C)=O	-4.13
in CCOCCO	-4.87
in CCOP(=O)(OCC)OCC	-4.97
in CN1CCCC1=O	-5.12
in CN1CCN(C)C1=O	-5.1
in CNC(C)=O	-5.12
in CO	-5.53
in COC(C)(C)C	-4.22
in COC(C)=O	-4.46
in Cc1ccc(C)cc1	-3.39
in Cc1cccc(C)c1	-3.33
in O	-4.76
in O=CN1CCOCC1	-4.53
in OCCOCCO	-4.77
in [2H]O[2H]	-4.86

ICI
Settings	solvation free energy, 298 K [kcal/mol]
in O	-2.49

C=CC(C)=CCC=C(C)C
Settings	solvation free energy, 298 K [kcal/mol]
in O	-0.5

COC(=O)C(C)(C)C
Settings	solvation free energy, 298 K [kcal/mol]
in O	-2.4

O=C(O)C(O)c1ccccc1 (stereo not drawn)
Settings	solvation free energy, 298 K [kcal/mol]
in C=CCCCCCCC=C	-9.41
in O	-13.7

CC(C)(C)Br
Settings	solvation free energy, 298 K [kcal/mol]
in Brc1ccccc1	-3.89
in C1CCOC1	-3.87
in C1COCCO1	-3.81
in C=CCCCCCCCCCCCCCC	-3.56
in CC(=O)N(C)C	-3.52
in CC(C)(C)O	-3.36
in CC(C)=O	-3.86
in CC(C)O	-3.23
in CCCCCC	-3.75
in CCCCO	-3.3
in CCCO	-3.19
in CCOC(C)=O	-4.05
in CCOCC	-3.85
in CN1CCCC1=O	-3.44
in CN(C)C=O	-3.59
in ClC(Cl)(Cl)Cl	-4.13
in ClCCCl	-4.02
in Clc1ccccc1	-3.93
in N#Cc1ccccc1	-3.64
in O	0.85

Clc1ccc(-c2ccccc2Cl)cc1
Settings	solvation free energy, 298 K [kcal/mol]
in CCCCCCCCO	-10
in O	-2.58

CN1C2CCC1CC(OC(=O)C(O)c1ccccc1)C2 (stereo not drawn)
Settings	solvation free energy, 298 K [kcal/mol]
in O	-13.8

Cc1[nH]c(=O)n(C(C)(C)C)c(=O)c1Cl
Settings	solvation free energy, 298 K [kcal/mol]
in O	-11.1

CCCCCCI
Settings	solvation free energy, 298 K [kcal/mol]
in O	0.08

CCC#N
Settings	solvation free energy, 298 K [kcal/mol]
in C=CCCCCCCCCCCCCCC	-2.85
in CC(=O)N(C)C	-4.99
in CC(C)CC(C)(C)C	-2.83
in CCCCCC	-3.04
in CCCCCCC	-2.86
in CCCCCCCC	-2.84
in CCCCCCCCCCCCCCCC	-2.64
in CCCCCCCCO	-3.65
in CCCCO	-4.01
in CCOC(C)=O	-4.68
in CN(C)C=O	-5.01
in CO	-4.92
in ClC(Cl)(Cl)Cl	-3.78
in ClCCCl	-4.98
in Clc1ccccc1	-4.45
in N#Cc1ccccc1	-4.82
in O	-3.84
in [2H]O[2H]	-3.79

CCOC(C)(C)C
Settings	solvation free energy, 298 K [kcal/mol]
in C1CCCCC1	-4.12
in CC(=O)N(C)C	-3.53
in CCCCCC	-4.07
in CCCCCCC	-3.98
in CCCCCCCCO	-3.67
in CCCCN(C=O)CCCC	-3.6
in CCN1CCCC1=O	-3.42
in CCN(CC)C(C)=O	-3.66
in CCNC(C)=O	-3.49
in CCNC=O	-3.38
in CCOCC	-4.22
in CN1CCCCC1=O	-3.44
in CN(C)C=O	-3.31
in CNC(C)=O	-3.4
in CNC=O	-3.21
in CO	-4.07
in O	-1.61

— the CombiSolv-Exp solvation set (Vermeire and Green 2021)
